These results are taken from ChEMBL document CHEMBL1201862, “PubChem BioAssay data set” (2004).

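Protocol summary: plate cells (96-well), add compound at 5 concentrations, incubate 48 h, interpolate endpoints linearly. GI50 = concentration required for 50% inhibition of growth.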 Activity calls are given as the source filed them. No stated cut-off is given here; in the data, active = GI50 up to about 1.1 µM and inactive = higher.

Some test systems named below: HOP-62; TK-10; ACHN; DU-145; HOP-92; OVCAR-4; KM12; A549; NCI-H23; HCT-15; BT-549; HT-29; SNB-75; HCC 2998; SK-OV-3; EKVX; IGROV-1; T47D; SK-MEL-5; MDA-MB-435.
What all share (test): NCI-60 cell line screen, 48 h

On to `O=C1c2ccccc2-c2nc3ccncc3n21`, for which the GI50 in the assay with HOP-62 is > 100 µM (inactive); in the assay on TK-10, > 100 µM (inactive); in the assay with ACHN, > 100 µM (inactive); in the assay on DU-145, 51.5 µM (inactive); in the assay on HOP-92 it was > 100 µM (inactive); in the assay with OVCAR-4, > 100 µM (inactive). Besides, the GI50 with KM12 is > 100 µM (inactive); in the assay with A549, > 100 µM (inactive); in the assay with NCI-H23, > 100 µM (inactive); in the assay with HCT-15 it was greater than 100 µM; in the assay on BT-549, > 100 µM (inactive); in the assay on HT-29 it was > 100 µM (inactive). Moreover, the GI50 in the assay on SNB-75, in the assay on HCC 2998, in the assay on SK-OV-3, in the assay on EKVX and in the assay with IGROV-1 was > 100 µM (inactive) in each case.
`COc1cccc(-c2cc(O)c3cc(N4CCCC4)ccc3n2)c1`: the GI50 in the assay with HOP-62 is < 0.001 µM (active); in the assay with TK-10 it was 2.6 µM (inactive); in the assay on ACHN, 0.00113 µM (active); in the assay with DU-145 it was < 0.001 µM (active); with HOP-92, 0.00112 µM (active); in the assay with OVCAR-4, 2.67 µM (inactive). Besides, the GI50 is < 0.001 µM (active) with KM12; < 0.001 µM (active) in the assay with A549; 0.00279 µM (active) with NCI-H23; 0.00169 µM in the assay on HCT-15; > 10 µM (inactive) in the assay on T47D; < 0.001 µM (active) in the assay with HT-29. Besides, the GI50 with SNB-75 is < 0.001 µM (active); in the assay with HCC 2998 it was 0.00206 µM (active); with SK-MEL-5, < 0.001 µM (active); in the assay on SK-OV-3, < 0.001 µM (active); in the assay with MDA-MB-435, < 0.001 µM (active); in the assay with EKVX, 0.166 µM (active). The GI50 in the assay with IGROV-1 was 0.005 µM (active).
Turning to `N#Cc1c(N2CCCC2)nsc1Nc1ccc(F)cc1`, the GI50 in the assay on HOP-62, with TK-10, in the assay with ACHN, in the assay on DU-145, in the assay on HOP-92 and with OVCAR-4 was > 100 µM (inactive) throughout. In addition, the GI50 in the assay on KM12 was > 100 µM (inactive); in the assay on A549, > 100 µM (inactive); in the assay with NCI-H23, > 100 µM (inactive); in the assay with HCT-15, greater than 100 µM; with T47D, > 100 µM (inactive); in the assay on HT-29, > 100 µM (inactive). Moreover, the GI50 in the assay with HCC 2998 was > 100 µM (inactive); with SK-MEL-5, > 100 µM (inactive); in the assay with SK-OV-3, 61.2 µM (inactive); in the assay with MDA-MB-435, > 100 µM (inactive); in the assay on EKVX, 19.7 µM (inactive); in the assay on IGROV-1 it was > 100 µM (inactive).
Take `COc1cccc(C2CC(=O)c3cccn32)c1` (stereo unspecified): the GI50 in the assay on HOP-62, in the assay with TK-10, in the assay on ACHN, in the assay with DU-145, in the assay on HOP-92 and in the assay with OVCAR-4 was > 100 µM (inactive) throughout. Besides, the GI50 is > 100 µM (inactive) in the assay on KM12; 94.6 µM (inactive) in the assay with A549; > 100 µM (inactive) in the assay on NCI-H23; greater than 100 µM in the assay with HCT-15; 50.2 µM (inactive) in the assay on T47D; > 100 µM (inactive) in the assay on HT-29. Further, the GI50 with SNB-75, in the assay with HCC 2998, in the assay with SK-OV-3, in the assay on MDA-MB-435, in the assay with EKVX and in the assay on IGROV-1 was > 100 µM (inactive) throughout.
Turning to `Cc1ccc(S(=O)(=O)N2CC(CCN)c3ccccc32)cc1` (stereo unspecified), the GI50 was 6.78 µM (inactive) with HOP-62; 7.89 µM (inactive) with TK-10; 8.41 µM (inactive) with ACHN; 3.87 µM (inactive) with DU-145; 4.19 µM (inactive) in the assay on HOP-92; 17.5 µM (inactive) in the assay on OVCAR-4. Moreover, the GI50 was 6.03 µM (inactive) in the assay on KM12; 9.51 µM (inactive) in the assay on A549; 6.38 µM (inactive) in the assay on NCI-H23; 4.05 µM in the assay with HCT-15; 5.69 µM (inactive) in the assay with BT-549; 2.89 µM (inactive) with HT-29. Also, the GI50 with SNB-75 was 5.46 µM (inactive); in the assay on HCC 2998, 4.76 µM (inactive); with SK-MEL-5, 2.58 µM (inactive); in the assay with SK-OV-3, 5.5 µM (inactive); with MDA-MB-435 it was 1.53 µM (inactive); with EKVX, 13 µM (inactive). The GI50 with IGROV-1 was 3.28 µM (inactive).
On to `CCOP(=O)(OCC)/C(C#N)=C/c1cnc(C)[nH]1`, for which the GI50 in the assay on HOP-62, with TK-10, with ACHN, in the assay on DU-145, in the assay with HOP-92 and with OVCAR-4 was > 100 µM (inactive) in each case. Moreover, the GI50 was > 100 µM (inactive) with KM12; > 100 µM (inactive) in the assay on A549; > 100 µM (inactive) in the assay on NCI-H23; greater than 100 µM in the assay with HCT-15; > 100 µM (inactive) with BT-549; > 100 µM (inactive) in the assay with HT-29. Moreover, the GI50 is > 100 µM (inactive) in the assay with SNB-75; > 100 µM (inactive) with HCC 2998; > 100 µM (inactive) in the assay on SK-MEL-5; 20.5 µM (inactive) with SK-OV-3; > 100 µM (inactive) with MDA-MB-435; > 100 µM (inactive) in the assay with EKVX. Also, the GI50 with IGROV-1 is > 100 µM (inactive).
As for `O=C(c1ccc(-c2ccccc2)cc1)N(Cc1cccnc1)C(=S)N(Cc1cccnc1)C(=O)c1ccc(-c2ccccc2)cc1`, the GI50 with HOP-62 is > 100 µM (inactive); in the assay with TK-10 it was > 100 µM (inactive); with ACHN, > 100 µM (inactive); in the assay on DU-145, > 100 µM (inactive); in the assay on HOP-92 it was 8.95 µM (inactive); in the assay with OVCAR-4, 32.7 µM (inactive). Further, the GI50 in the assay on KM12 was 56.6 µM (inactive); in the assay on A549 it was > 100 µM (inactive); in the assay with NCI-H23 it was > 100 µM (inactive); in the assay with HCT-15, 87.3 µM; in the assay on BT-549, 55 µM (inactive); with HT-29 it was 48.5 µM (inactive). Also, the GI50 in the assay on HCC 2998 is > 100 µM (inactive); in the assay on SK-MEL-5 it was 56 µM (inactive); in the assay with SK-OV-3, > 100 µM (inactive); in the assay on MDA-MB-435 it was 54.6 µM (inactive); in the assay on EKVX, > 100 µM (inactive).
On to `N=C(N)NCCN1CC2CCC(CC2)C1`, for which the GI50 in the assay on HOP-62 was > 100 µM (inactive); in the assay on TK-10 it was > 100 µM (inactive); in the assay with ACHN it was > 100 µM (inactive); in the assay with DU-145, > 100 µM (inactive); in the assay with HOP-92, 25.6 µM (inactive); in the assay with OVCAR-4 it was > 100 µM (inactive). The GI50 in the assay on KM12 is > 100 µM (inactive); in the assay on A549 it was > 100 µM (inactive); in the assay with NCI-H23 it was > 100 µM (inactive); in the assay on HCT-15, greater than 100 µM; with T47D it was > 100 µM (inactive); in the assay on HT-29 it was 65.2 µM (inactive). Moreover, the GI50 was 19.7 µM (inactive) with SNB-75; > 100 µM (inactive) in the assay with HCC 2998; 53.2 µM (inactive) with SK-MEL-5; > 100 µM (inactive) in the assay with SK-OV-3; 48.5 µM (inactive) in the assay on MDA-MB-435; > 100 µM (inactive) in the assay on EKVX. In addition, the GI50 in the assay on IGROV-1 is > 100 µM (inactive).
